# Measurements reported in US20250163104A1, “MACROCYCLIC IMMUNOMODULATORS” (priority 2021, published 2025).
# Where a SMILES comes first, the peptide text is derived from it. Bridges are numbered along the chain shown (N, C = ends). [ ]: non-standard residue; d: D form. The star is where a group is joined. Phe(4-COOH) = N[C@@H](Cc1ccc(C(=O)O)cc1)C(=O)O; Bip = N[C@@H](Cc1ccc(-c2ccccc2)cc1)C(=O)O; Phe(3-Me) = Cc1cccc(C[C@H](N)C(=O)O)c1; 4Pal = N[C@@H](Cc1ccncc1)C(=O)O; Cha = N[C@@H](CC1CCCCC1)C(=O)O; Carboxymethyl = O=C(O)C*; Orn = NCCC[C@H](N)C(=O)O; Dab = NCC[C@H](N)C(=O)O; Dap = NC[C@H](N)C(=O)O
# Molecular target: T1, human PD-1 / PD-L1-Ig binding on Jurkat cell line over-expressing human PD-1 (Jurkat-PD-1) (Homo sapiens, UniProt Q15116)
# T1 construct: expressed in transfected cells; host or cells: Jurkat
# Experiment: Jurkat-PD-1 Cell Binding High-Content Screening Assay (CBA)
# Format: cell-based
# Details: Jurkat-PD-1 cells, PE-labeled PD-L1-Ig 20 nM final; read-out: Jurkat HPD1_PDL1 IC50
# Method in brief: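 Cell-bound PE-labeled PD-L1-Ig (20 nM final, 1 h) measured by high-content imaging after fixation and Hoechst 33342 counterstain. Compound was applied first for 2 h at 37° C. to Jurkat cells over-expressing human PD-1 in DMEM with 10% FCS.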
# T1 sequence (Q15116 25-288): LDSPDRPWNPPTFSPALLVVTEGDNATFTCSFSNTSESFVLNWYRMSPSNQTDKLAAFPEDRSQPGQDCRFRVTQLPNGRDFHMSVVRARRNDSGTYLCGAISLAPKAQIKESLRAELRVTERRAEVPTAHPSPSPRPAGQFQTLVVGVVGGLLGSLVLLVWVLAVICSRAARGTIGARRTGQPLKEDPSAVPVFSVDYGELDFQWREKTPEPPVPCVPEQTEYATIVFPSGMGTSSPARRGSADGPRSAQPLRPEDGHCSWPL
row,IC50 [nM],SMILES
1,9.5,Cc1cccc(C[C@@H]2NC(=O)[C@H](CC(=O)O)NC(=O)[C@H](Cc3ccncc3)NC(=O)[C@H](CN)NC(=O)CSC[C@@H](C(=O)N[C@@H](C)C(N)=O)NC(=O)[C@H]([C@@H](C)O)NC(=O)[C@H](C(C)C)NC(=O)[C@H](CC3CCCCC3)NC(=O)[C@H](CCN)NC(=O)[C@@H](Cc3ccccc3)NC(=O)[C@H](CCCN)NC(=O)[C@H](CCC(=O)O)NC(=O)[C@H](Cc3ccc(-c4ccccc4)cc3)NC(=O)[C@H](C(C)C)NC2=O)c1 [Compound 1429] ({CH2CO}-[Dap][4Pal]D[Phe(3-Me)]V[Bip]E[Orn][dF][Dab][Cha]VTCA-NH2; thioether N-14)
2,10.8,Cc1cccc(C[C@@H]2NC(=O)[C@H](CC(=O)O)NC(=O)[C@H](Cc3ccncc3)NC(=O)[C@H](Cc3ccc(OCC(=O)O)cc3)NC(=O)CSC[C@@H](C(=O)N[C@@H](C)C(N)=O)NC(=O)[C@H]([C@@H](C)O)NC(=O)[C@H](C(C)C)NC(=O)[C@H](CC3CCCCC3)NC(=O)[C@H](CCN)NC(=O)[C@@H](Cc3ccccc3)NC(=O)[C@H](CCCN)NC(=O)[C@H](CCC(=O)O)NC(=O)[C@H](Cc3ccc(-c4ccccc4)cc3)NC(=O)[C@H](C(C)C)NC2=O)c1 [Compound 1430] ({CH2CO}-Y(Carboxymethyl)[4Pal]D[Phe(3-Me)]V[Bip]E[Orn][dF][Dab][Cha]VTCA-NH2; thioether N-14)
3,11.6,Cc1cccc(C[C@@H]2NC(=O)[C@H](CC(=O)O)NC(=O)[C@H](Cc3ccc(O)cc3)NC(=O)[C@H](CC(N)=O)NC(=O)CSC[C@@H](C(=O)N[C@@H](C)C(N)=O)NC(=O)[C@H]([C@@H](C)O)NC(=O)[C@H](C(C)C)NC(=O)[C@H](CC3CCCCC3)NC(=O)[C@H](CCN)NC(=O)[C@@H](Cc3ccccc3)NC(=O)[C@H](CCCN)NC(=O)[C@H](CCC(=O)O)NC(=O)[C@H](Cc3ccc(-c4ccccc4)cc3)NC(=O)[C@H](C(C)C)NC2=O)c1 [Compound 1431] ({CH2CO}-NYD[Phe(3-Me)]V[Bip]E[Orn][dF][Dab][Cha]VTCA-NH2; thioether N-14)
4,17.4,CC(C)[C@@H]1NC(=O)[C@H](Cc2c[nH]c3ccccc23)NC(=O)[C@H](CC(=O)O)NC(=O)[C@H](Cc2ccc(C(=O)O)cc2)NC(=O)[C@H](Cc2ccncc2)NC(=O)CSC[C@@H](C(=O)N[C@@H](C)C(N)=O)NC(=O)[C@H]([C@@H](C)O)NC(=O)[C@H](C(C)C)NC(=O)[C@H](CC2CCCCC2)NC(=O)[C@H](CCN)NC(=O)[C@@H](Cc2ccccc2)NC(=O)[C@H](CCCN)NC(=O)[C@H](CCC(=O)O)NC(=O)[C@H](Cc2ccc(-c3ccccc3)cc2)NC1=O [Compound 1432] ({CH2CO}-[4Pal][Phe(4-COOH)]DWV[Bip]E[Orn][dF][Dab][Cha]VTCA-NH2; thioether N-14)
5,40.5,CC(C)[C@@H]1NC(=O)[C@H](Cc2c[nH]c3ccccc23)NC(=O)[C@H](CC(=O)O)NC(=O)[C@H](Cc2ccncc2)NC(=O)[C@H](CN)NC(=O)CSC[C@@H](C(=O)N[C@@H](C)C(N)=O)NC(=O)[C@H]([C@@H](C)O)NC(=O)[C@H](C(C)C)NC(=O)[C@H](CC2CCCCC2)NC(=O)[C@H](CCN)NC(=O)[C@@H](Cc2ccccc2)NC(=O)[C@H](CCCN)NC(=O)[C@H](CCC(=O)O)NC(=O)[C@H](Cc2ccc(-c3ccccc3)cc2)NC1=O [Compound 1433] ({CH2CO}-[Dap][4Pal]DWV[Bip]E[Orn][dF][Dab][Cha]VTCA-NH2; thioether N-14)
6,35.9,CC(C)[C@@H]1NC(=O)[C@H](Cc2c[nH]c3ccccc23)NC(=O)[C@H](CC(=O)O)NC(=O)[C@H](Cc2ccncc2)NC(=O)[C@H](Cc2ccc(OCC(=O)O)cc2)NC(=O)CSC[C@@H](C(=O)N[C@@H](C)C(N)=O)NC(=O)[C@H]([C@@H](C)O)NC(=O)[C@H](C(C)C)NC(=O)[C@H](CC2CCCCC2)NC(=O)[C@H](CCN)NC(=O)[C@@H](Cc2ccccc2)NC(=O)[C@H](CCCN)NC(=O)[C@H](CCC(=O)O)NC(=O)[C@H](Cc2ccc(-c3ccccc3)cc2)NC1=O [Compound 1434] ({CH2CO}-Y(Carboxymethyl)[4Pal]DWV[Bip]E[Orn][dF][Dab][Cha]VTCA-NH2; thioether N-14)
